Measurements reported in patent US20240294470A1, “FRAGRANCE COMPOUNDS” (Givaudan SA, priority 2021, published 2024).

How the values were obtained:
[1] = Wash test in liquid detergent: odour intensity and quality on line-dried fabric, assessed by expert panel; conditions: for Fragrance score after 1 day / Fragrance score after 3 days: line-dried cotton/elastane fabric, panel of 4-6 experts, scale 0 (odourless) to 5 (extremely strong); for Odour intensity on dried fabric over time (FIG. 1): 0.2% by weight in liquid detergent, 40° C. wash, fresh dried, after 24 hours and after four days, scale 0 to 5
Protocol: A Nitrone precursor (Sample A: (E)-2-methyl-N-(4-methylbenzyl)undecan-1-imine oxide, compound of Example 1) has been compared to the aldehyde (Sample B: 2-methyl undecanal) in a wash test. • 1) Sample preparation: 0.2% by weight of the precursor or the aldehyde have been incorporated into unperfumed liquid detergent base by magnetic stirring at room temperature for 24 h., • 2) Wash test: A 40° C. machine wash cycle was performed using 55 g of the liquid detergent sample containing the test material and odour-neutral cotton/elastan mixed fabric T-shirts. […]
Further compounds of formula (I) have been tested in liquid detergent. • 1) Sample preparation: 0.2% wt/wt of the test material was incorporated in unperfumed liquid detergent base by magnetic stirring at room temperature for 24 h. • 2) Wash test: a 40° C. machine wash cycle was performed using 55 g of the liquid detergent sample containing the test material and odour-neutral cotton/elastane mixed fabric T-shirts. The wet fabric is line-dried and odour intensity and quality are assessed by a panel of 4-6 experts after 1 and 3 days on an intensity scale of 0 (odourless) to 5 (extremely strong).

[2] = Stability test in liquid detergent base by quantitative HPLC with UV detection; assay type: physicochemical
Protocol: Example 61: Stability test in liquid detergentThe stability of (E)-N-isopropyl-2-methylundecan-1-imine oxide (compound of Example 9) in a liquid detergent base was assessed by quantitative HPLC with UV detection.
A liquid detergent sample as prepared above containing the test substance was sampled at TO and after 30 days storage at 37° C. (300 mg diluted with 10 mL acetonitrile/high purity water 1:1), and the concentration of the precursor was assessed by quantitative HPLC-UV using an external calibration curve.

[3] = Application in shampoo: odour intensity and quality on dry hair swatches, assessed by expert panel; conditions: 0.2% wt/wt in shampoo
Protocol: • 1) Sample preparation: 0.2% wt/wt of (E)-N-isopropyl-2-methylundecan-1-imine oxide (compound of example 9) was incorporated in unperfumed shampoo base by magnetic stirring at room temperature for 24 h. • 2) Wash test: Hair swatches were wetted with warm tap water, then 2 mL of the above prepared shampoo sample was applied to the hair swatches lathering with gloves delicately for 30 seconds. The hair swatches were rinsed with cold tap water for 20 seconds and excess water was removed by squeezing the hair swatches between two fingers. The hair swatches were left to dry in open air. Their odour intensity and quality was assessed by a panel of 4-6 experts after 1 and 2 days on an intensity scale of 0 (odourless) to 5 (extremely strong). • 3) Results: After 1 day, the fragrance score was 3.2, after 2 days, the fragrance score was 3.3.

[4] = Biodegradability by manometric respirometry test (OECD guideline No. 301F); conditions: OECD 301F manometric respirometry; oxygen consumption of theory
Description: The results of the biodegradability assessment by the manometric respirometry test (OECD guideline for the testing of materials No. 301F, Paris 1992) are summarized in Table 2.
A compound can be classified biodegradable, if it reaches the pass level of 60% oxygen consumption of theory required for complete mineralization.
It is readily biodegradable, if the pass level is reached within 10 days within the 28-day period of the test. The 10-day window begins when the degree of biodegradation has reached 10%.
If the pass level is obtained after 28-day period of the test, the compound can be classified as inherently biodegradable.

[5] = 0.2% wt/wt in liquid detergent, 40° C. machine wash

Row | Compound | Fragrance score after 1 day [1, 5] | Fragrance score after 3 days [1, 5] | Biodegradation in % [4] [%] | other results
1 | CCCCCCCCCC(C)/C=[N+](/[O-])C(C)C (stereo not shown) [Example 9, (E)-N-isopropyl-2-methylundecan-1-imine oxide] | 2.4 | 3.2 | 70 | Stability in liquid detergent (judgement) ([2]; 30 days storage at 37° C., alkaline liquid detergent): stable; Concentration of the precursor in liquid detergent, initial ([2]; liquid detergent base, T0, HPLC-UV): 0.21 weight %; Concentration of the precursor in liquid detergent after storage ([2]; liquid detergent base, after 30 days storage at 37° C., HPLC-UV): 0.18 weight %; Perceived odour on dry hair [3]: clean, aldehydic; Fragrance score after 1 day ([3]; panel of 4-6 experts, scale 0 (odourless) to 5 (extremely strong), after 1 day): 3.2; Fragrance score after 2 days ([3]; panel of 4-6 experts, scale 0 (odourless) to 5 (extremely strong), after 2 days): 3.3
2 | CCCCCCCCCC(C)/C=[N+](/[O-])C1CCCCC1 (stereo not shown) [Example 6, (E)-N-cyclohexyl-2-methylundecan-1-imine oxide] |  |  | 74 | 
3 | CCCCCCCCCC(C)/C=[N+](/[O-])Cc1ccc(OC)cc1 (stereo not shown) [Example 58, (E)-N-(4-methoxybenzyl)-2-methylundecan-1-imine oxide] |  |  | 76 | 
4 | CC1=C(/C=C/C(C)=[N+](/[O-])C(C)C)C(C)(C)CCC1 [Example 10, (2E,3E)-N-isopropyl-4-(2,6,6-trimethylcyclohex-1-en-1-yl)but-3-en-2-imine oxide] | 2.3 | 2.2 |  | Odour on dry fabric ([1]; 0.2% wt/wt in liquid detergent, 40° C. machine wash, line-dried fabric, odour quality by panel): ionone
5 | CCCCCCCCCC(C)/C=[N+](/[O-])CC(C)CCC (stereo not shown) [Example 15, (E)-2-methyl-N-(2-methylpentyl)undecan-1-imine oxide] |  |  | 75 | 
6 | CCCCCCCCCC(C)/C=[N+](/[O-])Cc1ccccc1 (stereo not shown) [Example 5, (E)-N-benzyl-2-methylundecan-1-imine oxide] |  |  | 87 | 
7 | CCCCCCCCCC(C)/C=[N+](/[O-])Cc1ccc(C)cc1 (stereo not shown) [Example 1, (E)-2-methyl-N-(4-methylbenzyl)undecan-1-imine oxide] |  |  | 83 | Odour intensity on dried fabric over time (FIG. 1) [1]: increases with time and is the highest after four days
8 | CCCCCCCCCC(C)C=O (stereo not shown) [Sample B, 2-methyl undecanal, reference compound] |  |  |  | Odour intensity on dried fabric over time (FIG. 1) [1]: relatively high on the freshly dried sample and decreases with time
9 | CCCCCCCCC/C=C/C=[N+](\[O-])Cc1ccccc1 [Example 49, (1Z,2E)-N-benzyldodec-2-en-1-imine oxide] | 2.9 | 3.0 |  | 
10 | CCCCCCCCCC(C)/C=[N+](\C)[O-] (stereo not shown) [Example 13, (E)-N,2-dimethylundecan-1-imine oxide] |  |  | 89 | 
